Experiments:
[1] = tested on: Alternaria solani; experiment: Activity against early blight of tomato caused by Alternaria solani (Alteso P1), greenhouse; type: in vivo; conditions: tomato plants, comparative experiment, untreated 90
Description: The active compounds were prepared separately or jointly as a stock solution comprising 25 mg of active compound which was made up to 10 ml using a mixture of acetone and/or DMSO and the emulsifier Wettol EM 31 (wetting agent having emulsifying and dispersing action based on ethoxylated alkylphenol) in a volume ratio of solvent/emulsifier of 99:1. The mixture was then made up to 100 ml with water. This stock solution was diluted with the solvent/emulsifier/water mixture described to give the concentration of active compound stated below. Leaves of potted tomato plants were sprayed to runoff point with an aqueous suspension having the active compound concentration stated below. The next day, the leaves were inoculated with an aqueous spore suspension of Alternaria solani in a 2% strength biomalt solution. The plants were then placed in a water vapor-saturated chamber at temperatures between 20 and 22° C. After 5 days, the disease on the untreated but infected control plants had developed to such an extent that the infection could be determined visually in %. […]

[2] = tested on: Botrytis cinerea; experiment: Activity against gray mold on bell pepper leaves caused by Botrytis cinerea, 1 day protective application (Botrci P1), greenhouse; type: in vivo; conditions: bell pepper seedlings, comparative experiment, untreated 100
Description: The active compounds were prepared separately or jointly as a stock solution comprising 25 mg of active compound which was made up to 10 ml using a mixture of acetone and/or DMSO and the emulsifier Wettol EM 31 (wetting agent having emulsifying and dispersing action based on ethoxylated alkylphenol) in a volume ratio of solvent/emulsifier of 99:1. The mixture was then made up to 100 ml with water. This stock solution was diluted with the solvent/emulsifier/water mixture described to give the concentration of active compound stated below. Bell pepper seedlings were, after 2-3 leaves were well developed, sprayed to runoff point with an aqueous suspension having the active compound concentration stated below. The next day, the treated plants were inoculated with a spore suspension of Botrytis cinerea in a 2% strength biomalt solution. The test plants were then placed in a dark climatized chamber at 22 to 24° C., and high atmospheric humidity. After 5 days, the extent of the fungal infection on the leaves could be determined visually in %.

[3] = tested on: Septoria tritici; experiment: Activity against the Septoria leaf blotch pathogen Septoria tritici in the microtiter test (Septtr); type: cell-based; conditions: 125 ppm active compound, microtiter plate, 405 nm, day 7 after inoculation
Description: (§1) The active compounds were formulated separately as a stock solution having a concentration of 1 ppm in DMSO. The stock solution is pipetted onto a microtiter plate (MTP) and diluted to the stated active compound concentration using a malt-based aqueous nutrient medium for fungi. An aqueous spore suspension of Septoria tritici was then added. The plates were placed in a water vapor-saturated chamber at temperatures of 18° C. Using an absorbtion photometer, the MTPs were measured at 405 nm on day 7 after the inoculation. The measured parameters were compared to the growth of the active compound-free control variant and the fungus- and active compound-free blank value to determine the relative growth in % of the pathogens in the individual active compounds.

[4] = tested on: Alternaria solani; experiment: Activity against Alternaria solani early blight pathogen in the microtiter test (Alteso); type: cell-based; conditions: 125 ppm active compound, microtiter plate, 405 nm, day 7 after inoculation
Description: as §1, with “Alternaria solani” for “Septoria tritici”

SMILES	Infection in % at 63 ppm for Alteso P1 [1] [%]	Infection in % at 63 ppm for Botrci P1 [2] [%]	growth (relative growth in % of the pathogens) [3] [%]	growth (relative growth in % of the pathogens) [4] [%]
Fc1ccc(C2(Cn3cncn3)OC2c2ccccc2Cl)c(F)c1 (racemic) [8.12]	10	30	–	–
Cc1cccc(C2OC2(Cn2cncn2)c2ccc(F)cc2F)c1 (stereo not drawn) [8.8]	–	–	0	0
Fc1ccccc1C1(Cn2cncn2)OC1c1ccccc1Cl (stereo not drawn) [Comp. No. 6 of EP-A 0196038, reference compound]	90	100	–	–
